Where two headings read alike, the source gives them in different places.
Tests used:
H929 cells = assay: Cell viability assay (H929 10 FBS); assay type: cell-based; conditions: CellTiter-Glo or ATPlite, read-out: H929_10FBS IC50
Description: Cell Viability Assay (H929 10 FBS)
Dispense 10 μL aliquot of prepared H929 cells (1:1 ratio of cells:Trypan Blue (#1450013, Bio-Rad)) onto cell counting slide (#145-0011, Bio-Rad) and obtain cell density and cell viability using cell counter (TC20, Bio-Rad). Remove appropriate volume of resuspended cells from culture flask to accommodate 4000 cells/well @ 10 μL/well. Transfer H929 cells to 50 mL conical (#430290, Corning). Spin down at 1000 rpm for 5 min using tabletop centrifuge (SPINCHRON 15, Beckman). Discard supernatant and resuspend cell pellet in modified RPMI 1640 (#10-040-CV, Corning) cell culture media containing 10% FBS (F2422-500 ML, Sigma), sodium pyruvate (100 mM) (#25-000-CL, Corning), HEPES buffer (1 M) (#25-060-CL, Corning) and glucose (200 g/L) (A24940-01, Gibco) to a cell density of 400,000 cells/mL. Dispense 10 μL of resuspended H929 cells per well in 384-well small volume TC treated plate (#784080, Greiner Bio-one) using standard cassette (#50950372, Thermo Scientific) on Multi-drop Combi (#5840310, Thermo Scientific) in laminar flow cabinet. Dispense compounds onto plates using digital liquid dispenser (D300E, Tecan). Incubate plates in humidified tissue culture incubator @ 37° C. for 24 hours. Add 10 μL of prepared CellTiTer-Glo® detection buffer (G7570, Promega) or ATPlite 1Step detection reagent (#6016731, Perkin Elmer) to each well of 384-well plate using small tube cassette (#24073295, Thermo Scientific) on Combi multi drop, incubate @ RT for 30-60 min. Read plates with microplate reader (PheraStar, BMG Labtech) using 384 well luminescence mode.

MCL-1 = molecular target: T1, MCL-1 (Homo sapiens, UniProt Q07820); assay: Cell free Mcl-1:Bim affinity assay (fluorescence polarization competition); assay type: binding; conditions: 15 nM MCL-1, 5 nM FITC-Bim tracer, 1 hour at room temperature; Ki calc. from IC50 by Nikolovska-Coleska's equation; read-out: BIM_ Ki
T1 construct: purchased BPS Bioscience
Description: Cell Free Mcl-1:Bim Affinity Assay (Mcl-1 Bim)
The binding affinity of each compound was measured via a fluorescence polarization competition assay, in which the compound competes for the same binding site with the ligand, and thus leads to a dose-dependent anisotropy reduction. The tracer ligand utilized was a fluorescein isothiocyanate labelled peptide (FITC-[…]) derived from Bim (GenScript).
The assay was carried out in black half-area 96-well NBS plate (Corning), containing 15 nM of MCL-1 (BPS Bioscience), 5 nM of FITC-Bim and 3-fold serial diluted test compounds in a total volume of 50 μL of assay buffer (20 mM HEPES, 50 mM NaCl, 0.002% Tween 20, 1 mM TCEP, and 1% DMSO). The reaction plate was incubated for 1 hour at room temperature. The change of anisotropy is measured with an Envision multimode plate reader (PerkinElmer) at emission wavelength 535 nm. Fluorescence polarization was calc. in mP unit and the percentage inhibition was calc. by % inhibition=100×(mPDMSO−mP)/(mPDMSO−mPPC), in which mPDMSO is the DMSO control, and mPPC is the positive control. IC50 values were determined from a 10-point dose response curve by fitting the percent inhibition against compound concentration using the GraphPad Prism software. The inhibition constant Ki was subsequently calc. according to the Nikolovska-Coleska's equation (Anal. Biochem., 2004, 332, 261),
where [I]50 is the concentration of the free inhibitor at 50% inhibition, [L]50 is the concentration of the free labeled ligand at 50% inhibition, [P]0 is the concentration of the free protein at 0% inhibition, and Kd is the dissociation constant of the protein-ligand complex.

T1 sequence (Q07820 whole entry): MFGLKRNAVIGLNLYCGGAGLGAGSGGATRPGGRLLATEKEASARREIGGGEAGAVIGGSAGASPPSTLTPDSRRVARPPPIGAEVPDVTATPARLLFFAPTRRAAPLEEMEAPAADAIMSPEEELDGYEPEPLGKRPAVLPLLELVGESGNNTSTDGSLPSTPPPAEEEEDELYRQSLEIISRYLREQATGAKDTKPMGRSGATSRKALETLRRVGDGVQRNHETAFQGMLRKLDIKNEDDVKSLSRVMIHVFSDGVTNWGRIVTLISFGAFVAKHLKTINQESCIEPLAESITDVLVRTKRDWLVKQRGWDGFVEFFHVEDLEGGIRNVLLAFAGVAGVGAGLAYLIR

| SMILES | IC50 (H929 cells; 24 hours) [nM] | Ki (MCL-1) [nM] | IC50 (H929 cells; Homo sapiens, NCI-H929, 24 h) [nM] |
| --- | --- | --- | --- |
| COC1C=CCOC(C)(C)C(=O)N=S(=O)(NC(=O)N2CC(O)C2)c2ccc3c(c2)N(CC2CCC21)CC1(CCCc2cc(Cl)ccc21)CO3 (centres unmarked) [29 or 30] | < 100 | < 1 |  |
| COC1C=CCOC(C)(C)C(=O)N=S(=O)(NC(=O)N2CC(O)C2)c2ccc3c(c2)N(CC2CCC21)CC1(CCCc2cc(Cl)ccc21)CO3 (centres unmarked) [30 or 29] | > 500 | > 1 |  |
| COC1CN(C(=O)NS2(=O)=NC(=O)C(C)(C)OCC=CC(OC)C3CCC3CN3CC4(CCCc5cc(Cl)ccc54)COc4ccc2cc43)C1 (centres unmarked) [31 or 32] |  | < 1 | < 100 |
| COC1CN(C(=O)NS2(=O)=NC(=O)C(C)(C)OCC=CC(OC)C3CCC3CN3CC4(CCCc5cc(Cl)ccc54)COc4ccc2cc43)C1 (centres unmarked) [32 or 31] | 100 to 500 | < 1 |  |
| CO[C@H]1/C=C/COC(C)(C)C(=O)N=S(=O)(NC(=O)C2CCOCC2)c2ccc3c(c2)N(C[C@@H]2CC[C@H]21)C[C@@]1(CCCc2cc(Cl)ccc21)CO3 (stereo partly drawn) [Example 11, N-[(3R,6R,7S,8E,22S)-7′-Chloro-7-methoxy-12,12-dimethyl-13,15-dioxospiro[11,20-dioxa-15-thia-1,14-diazatetracyclo[14.7.2.03,6.019,24]pentacosa-8,14,16,18,24-pentaene-22,4′-2,3-dihydro-1H-naphthalene]-15-yl]oxane-4-carboxamide] |  | < 1 | < 100 |
| CO[C@H]1/C=C/COC(C)(C)C(=O)N=S(=O)(NC(=O)c2ccccc2)c2ccc3c(c2)N(C[C@@H]2CC[C@H]21)C[C@@]1(CCCc2cc(Cl)ccc21)CO3 (stereo partly drawn) [Example 12, N-[(3R,6R,7S,8E,22S)-7′-Chloro-7-methoxy-12,12-dimethyl-13,15-dioxospiro[11,20-dioxa-15-thia-1,14-diazatetracyclo[14.7.2.03,6.019,24]pentacosa-8,14,16,18,24-pentaene-22,4′-2,3-dihydro-1H-naphthalene]-15-yl]benzamide] |  | < 1 | 100 to 500 |
| CO[C@H]1/C=C/COC(C)(C)C(=O)N=S(=O)(NC(=O)c2cnn(C)c2)c2ccc3c(c2)N(C[C@@H]2CC[C@H]21)C[C@@]1(CCCc2cc(Cl)ccc21)CO3 (stereo partly drawn) [Example 15, N-[(3R,6R,7S,8E,22S)-7′-Chloro-7-methoxy-12,12-dimethyl-13,15-dioxospiro[11,20-dioxa-15-thia-1,14-diazatetracyclo[14.7.2.03,6.019,24]pentacosa-8,14,16,18,24-pentaene-22,4′-2,3-dihydro-1H-naphthalene]-15-yl]-1-methylpyrazole-4-carboxamide] |  | < 1 | < 100 |
| COc1nn(C)cc1C(=O)NS1(=O)=NC(=O)C(C)(C)OC/C=C/[C@H](OC)[C@@H]2CC[C@H]2CN2C[C@@]3(CCCc4cc(Cl)ccc43)COc3ccc1cc32 (stereo partly drawn) [Example 16, N-[(3R,6R,7S,8E,22S)-7′-Chloro-7-methoxy-12,12-dimethyl-13,15-dioxospiro[11,20-dioxa-15-thia-1,14-diazatetracyclo[14.7.2.03,6.019,24]pentacosa-8,14,16,18,24-pentaene-22,4′-2,3-dihydro-1H-naphthalene]-15-yl]-3-methoxy-1-methylpyrazole-4-carboxamide] |  | < 1 | < 100 |

Now from value to compound:

| IC50 (H929 cells; 24 hours) [nM] | Ki (MCL-1) [nM] | IC50 (H929 cells; Homo sapiens, NCI-H929, 24 h) [nM] | SMILES |
| --- | --- | --- | --- |
|  | < 1 | < 100 | CO[C@H]1/C=C/COC(C)(C)C(=O)N=S(=O)(NC(=O)c2cn(C)nc2C)c2ccc3c(c2)N(C[C@@H]2CC[C@H]21)C[C@@]1(CCCc2cc(Cl)ccc21)CO3 (stereo partly drawn) [Example 17, N-[(3R,6R,7S,8E,22S)-7′-chloro-7-methoxy-12,12-dimethyl-13,15-dioxospiro[11,20-dioxa-15-thia-1,14-diazatetracyclo[14.7.2.03,6.019,24]pentacosa-8,14,16,18,24-pentaene-22,4′-2,3-dihydro-1H-naphthalene]-15-yl]-1,3-dimethylpyrazole-4-carboxamide] |
|  | < 1 | < 100 | CCNC(=O)NS1(=O)=NC(=O)C(C)(C)OC/C=C/[C@H](OC)[C@@H]2CC[C@H]2CN2C[C@@]3(CCCc4cc(Cl)ccc43)COc3ccc1cc32 (stereo partly drawn) [Example 20, 1-[(3R,6R,7S,8E,22S)-7′-Chloro-7-methoxy-12,12-dimethyl-13,15-dioxospiro[11,20-dioxa-15-thia-1,14-diazatetracyclo[14.7.2.03,6.019,24]pentacosa-8,14,16,18,24-pentaene-22,4′-2,3-dihydro-1H-naphthalene]-15-yl]-3-ethylurea] |
|  | < 1 | < 100 | CO[C@H]1/C=C/COC(C)(C)C(=O)N=S(=O)(NC(=O)N2CC(N(C)C)C2)c2ccc3c(c2)N(C[C@@H]2CC[C@H]21)C[C@@]1(CCCc2cc(Cl)ccc21)CO3 (stereo partly drawn) [Example 33, N-[(3R,6R,7S,8E,22S)-7′-Chloro-7-methoxy-12,12-dimethyl-13,15-dioxospiro[11,20-dioxa-15-thia-1,14-diazatetracyclo[14.7.2.03,6.019,24]pentacosa-8,14,16,18,24-pentaene-22,4′-2,3-dihydro-1H-naphthalene]-15-yl]-3-(dimethylamino)azetidine-1-carboxamide] |
|  | > 1 |  | CC(C)C(=O)NS1(=O)=NC(=O)C(C)(C)OC/C=C/[C@H](OCCN(C)C)[C@@H]2CC[C@H]2CN2C[C@@]3(CCCc4cc(Cl)ccc43)COc3ccc1cc32 (stereo partly drawn) [Example 55, N-[(3R,6R,7S,8E,22S)-7′-Chloro-7-[2-(dimethylamino)ethoxy]-12,12-dimethyl-13,15-dioxospiro[11,20-dioxa-15-thia-1,14-diazatetracyclo[14.7.2.03,6.019,24]pentacosa-8,14,16,18,24-pentaene-22,4′-2,3-dihydro-1H-naphthalene]-15-yl]-2-methylpropanamide] |
